# Measurements as given in article PMC6017585, “Molecular Basis for Converting (2S)-Methylsuccinyl-CoA Dehydrogenase into an Oxidase” (Molecules : A Journal of Synthetic Chemistry and Natural …, 2017).
# Experiments:
# [1] = target: T1, (2S)-methylsuccinyl-CoA dehydrogenase (Mcd) (Cereibacter sphaeroides, UniProt D3JV03, W315F/T317G/E377N); conditions: dioxygen as electron acceptor, substrate made in situ from ethylmalonyl-CoA, pH 7.8, 30 °C
# [2] = target: T2, (2S)-methylsuccinyl-CoA dehydrogenase (Mcd) (Cereibacter sphaeroides, UniProt D3JV03); conditions: ETF as electron acceptor (55 µM), pH 7.8, 30 °C
# [3] = target: (2S)-methylsuccinyl-CoA dehydrogenase (Mcd) (Cereibacter sphaeroides, UniProt D3JV03, T317G); conditions: dioxygen as electron acceptor, substrate made in situ from ethylmalonyl-CoA, pH 7.8, 30 °C
# [4] = target: T3, ETF (electron transfer flavoprotein) (Cereibacter sphaeroides, UniProt Q9AQC3+Q9AQC4); assay: absorbance of ETF-bound FAD at […] nm; type: binding; conditions: 55 µM ETF reduced by 0.1 µM Mcd, pH 7.8, 30 °C
# T3 construct: gene etfA; plasmid pTE392 (pCDFDuet-1), alpha subunit N-terminal His6-tag, E. coli BL21 (DE3), heterodimer
# [5] = target: T2, (2S)-methylsuccinyl-CoA dehydrogenase (Mcd); conditions: holoenzyme, pH 7.7, 25 °C
# [6] = target: T1, (2S)-methylsuccinyl-CoA dehydrogenase (Mcd); conditions: FAD-reconstituted enzyme, 12 µM (2S)-methylsuccinyl-CoA, pH 7.5
# T2 sequence (D3JV03 whole entry): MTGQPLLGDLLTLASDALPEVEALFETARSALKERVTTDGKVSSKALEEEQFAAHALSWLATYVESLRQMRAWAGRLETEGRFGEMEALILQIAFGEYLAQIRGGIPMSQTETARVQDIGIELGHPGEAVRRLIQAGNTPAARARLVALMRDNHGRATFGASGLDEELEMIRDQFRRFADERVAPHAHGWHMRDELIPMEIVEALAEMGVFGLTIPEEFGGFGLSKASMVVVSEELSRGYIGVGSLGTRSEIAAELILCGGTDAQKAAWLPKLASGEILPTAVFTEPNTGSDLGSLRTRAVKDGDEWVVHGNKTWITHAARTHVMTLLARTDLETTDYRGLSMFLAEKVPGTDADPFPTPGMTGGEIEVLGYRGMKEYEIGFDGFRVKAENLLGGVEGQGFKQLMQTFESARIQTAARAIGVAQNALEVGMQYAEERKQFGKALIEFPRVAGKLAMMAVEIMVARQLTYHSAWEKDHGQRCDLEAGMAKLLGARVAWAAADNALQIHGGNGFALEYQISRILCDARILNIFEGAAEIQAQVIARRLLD
# T1 sequence (D3JV03 whole entry W315F/T317G/E377N): as the sequence (D3JV03 whole entry) above, with W315F, T317G, E377N counted along it
# T3 sequence (Q9AQC4 entry or part of it): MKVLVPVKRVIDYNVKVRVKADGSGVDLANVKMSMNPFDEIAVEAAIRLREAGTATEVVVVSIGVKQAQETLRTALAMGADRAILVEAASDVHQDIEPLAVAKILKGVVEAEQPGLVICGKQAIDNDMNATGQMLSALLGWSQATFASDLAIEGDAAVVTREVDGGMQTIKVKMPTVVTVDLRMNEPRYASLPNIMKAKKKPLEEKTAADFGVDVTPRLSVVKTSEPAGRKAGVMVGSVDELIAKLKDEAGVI
# T3 sequence (Q9AQC3 entry or part of it): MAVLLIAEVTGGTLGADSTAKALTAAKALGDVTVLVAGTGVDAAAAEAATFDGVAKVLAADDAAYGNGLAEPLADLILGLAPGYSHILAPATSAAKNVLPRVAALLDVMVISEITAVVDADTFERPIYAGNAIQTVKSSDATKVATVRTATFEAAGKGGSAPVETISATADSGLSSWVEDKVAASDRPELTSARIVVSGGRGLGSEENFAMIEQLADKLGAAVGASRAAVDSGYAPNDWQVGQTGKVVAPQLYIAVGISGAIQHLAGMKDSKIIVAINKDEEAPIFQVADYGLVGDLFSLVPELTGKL
# Sequence of (2S)-methylsuccinyl-CoA dehydrogenase (Mcd) (Cereibacter sphaeroides, UniProt D3JV03, T317G) (D3JV03 whole entry T317G): as the sequence (D3JV03 whole entry) above, with T317G counted along it
Structure (SMILES),LC mesaconyl-CoA formation; FAD absorbance at 440 nm [1],LC-MS mesaconyl-CoA formation; FAD / ETF absorbance at 440 nm [2],LC mesaconyl-CoA formation; FAD absorbance at 440 nm [3],absorbance of ETF-bound FAD at 440 nm [4],co-purification; visible absorbance of bound flavin at 440 nm [5],50 kDa ultrafiltration of FAD; flow-through spectrum [6]
C[C@@H](CC(=O)O)C(=O)SCCNC(=O)CCNC(=O)[C@H](O)C(C)(C)COP(=O)(O)OP(=O)(O)OC[C@H]1O[C@@H](n2cnc3c(N)ncnc32)[C@H](O)[C@@H]1OP(=O)(O)O (mixture of isomers) [(2S)-methylsuccinyl-CoA],The re-oxidation of the two enzymes was accompanied by product (mesaconyl-CoA) formation,Mcd showed a fast electron transfer from the CTC to ETF,The re-oxidation of the two enzymes was accompanied by product (mesaconyl-CoA) formation,–,–,–
Cc1cc2nc3c(=O)[nH]c(=O)nc-3n(C[C@H](O)[C@H](O)[C@H](O)COP(=O)(O)OP(=O)(O)OC[C@H]3O[C@@H](n4cnc5c(N)ncnc54)[C@H](O)[C@@H]3O)c2cc1C [FAD],–,–,–,allowed for the direct observation of ETF-bound FAD,"Concentration of Mcd, which eluted with bound FAD cofactor",FAD does not dissociate from the enzyme during catalysis
